Data: article PMC6880192, “Structure–Effect Relationships of Novel Semi-Synthetic Cannabinoid Derivatives” (Frontiers in Pharmacology, 2019)
“Also recorded” adds a separate entry of the source.

What was measured:
CB1-receptor [1] = molecular target: T1, CB1-receptor (Homo sapiens, UniProt P21554); assay: biochemical; type: binding; conditions: mean ± SEM, n = 3; radioligand [3H]-CP55940
T1 construct: expressed in transfected cells; host or cells: CHO cells, stably transfected with CB1 cDNA (from IMIBIC) and transiently with CRE-luc
T1 sequence (P21554 whole entry): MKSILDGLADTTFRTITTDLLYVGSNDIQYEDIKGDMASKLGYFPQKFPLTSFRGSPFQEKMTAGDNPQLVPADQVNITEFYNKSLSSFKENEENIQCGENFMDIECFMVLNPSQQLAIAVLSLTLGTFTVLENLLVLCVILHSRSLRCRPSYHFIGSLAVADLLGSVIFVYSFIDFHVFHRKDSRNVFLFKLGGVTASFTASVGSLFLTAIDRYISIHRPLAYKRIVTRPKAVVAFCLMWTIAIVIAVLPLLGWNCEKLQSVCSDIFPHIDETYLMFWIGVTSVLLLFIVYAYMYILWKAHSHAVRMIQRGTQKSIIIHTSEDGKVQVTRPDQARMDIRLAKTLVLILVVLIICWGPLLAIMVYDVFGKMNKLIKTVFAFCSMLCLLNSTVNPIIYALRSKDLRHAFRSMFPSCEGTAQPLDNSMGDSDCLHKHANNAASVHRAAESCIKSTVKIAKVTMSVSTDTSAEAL

CB2-receptor [2] = molecular target: T2, CB2-receptor (Homo sapiens, UniProt P34972); assay: Competition binding against [3H]-CP55940, CB2 membranes; conditions: for Ki: mean ± SEM, n = 3, radioligand [3H]-CP55940; for Selectivity CB2/CB1: ratio of Ki values
T2 construct: expressed in transfected cells; host or cells: CHO cells, stably transfected with CB2 cDNA (from IMIBIC) and transiently with CRE-luc
T2 sequence (P34972 whole entry): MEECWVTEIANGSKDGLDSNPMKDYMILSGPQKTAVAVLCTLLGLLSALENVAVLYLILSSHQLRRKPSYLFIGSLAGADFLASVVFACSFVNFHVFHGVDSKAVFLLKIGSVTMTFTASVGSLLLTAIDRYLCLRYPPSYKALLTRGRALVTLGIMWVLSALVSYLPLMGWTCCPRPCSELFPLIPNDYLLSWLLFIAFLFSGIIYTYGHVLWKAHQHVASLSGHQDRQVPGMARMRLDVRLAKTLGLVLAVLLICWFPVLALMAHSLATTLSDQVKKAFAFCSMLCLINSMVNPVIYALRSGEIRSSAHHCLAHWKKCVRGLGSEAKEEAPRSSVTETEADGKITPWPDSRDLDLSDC

CB1-receptor [3] = molecular target: T1, CB1-receptor; assay: cAMP-dependent luciferase assay in CHO-CB1-CRE-luc cells; type: cell-based; conditions: for Effect on CB1: CHO-CB1-CRE-luc, summary classification; for CB1-receptor antagonistic activity (fold induction of CRE-luc): 15 min pre-incubation, then 1 µmol/L WIN for 6 h; for CB1-receptor agonistic activity (fold induction of CRE-luc): 6 h stimulation with test compound
Protocol: (§1) Briefly, CHO cells were stably transfected with CB1- and CB2-receptor complementary DNAs (cDNAs) (kindly provided by IMIBIC). Around 10^5 transfected cells per milliliter were seeded in 24-well plates and transiently transfected with the plasmid CRE-luc using Roti-Fect (Carl Roth, Karlsruhe) following the manufacturer’s instructions. The cells were harvested after 24 h. Two transfected cell types resulted: CHO-CB1-CRE-luc and CHO-CB2-CRE-luc.
(§2) To test for agonistic activity at the CB1-receptor, the CHO-CB1-CRE-luc cells were stimulated for 6 h with increasing concentrations of the test compounds ([Bouaboula et al. 1997]). Forskolin (FSK), a strong CB-receptor-independent activator of adenylyl-cyclase was used at 10 µmol/L as a positive control. To investigate the antagonistic activity, the CHO-CB1-CRE-luc cells were pre-incubated for 15 min with the test compounds before stimulation for 6 h with 1 µmol/L WIN ([Zheng et al. 2013]). To investigate CB2-receptor agonistic activity, CHO-CB2-CRE-luc cells were pre-incubated for 15 min with increasing concentrations of the test substances and then for 6 h with 10 µmol/L FSK. WIN, a non-specific agonist at CB2-receptors, was used as a positive control. To confirm CB2-receptor agonistic activities of the test compounds, CHO-CB2-CRE-luc cells were pre-incubated with the specific CB2-receptor antagonist AM630 (1 µmol/L, 6-iodopravadoline; Cayman, distributed by Biozol, Hamburg) ([Ross et al. 1999]; [Zheng et al. 2013]) and then treated with increasing concentrations of the test substances.
(§3) After the stimulations and incubations, cells were lysed in a solution of 25 mmol Tris-phosphate (pH = 7.8), 8 mmol MgCl2, 1 mmol dithiothreitol (DTT), 1% Triton X-100, and 7% glycerol. The luciferase activity was measured with a Luciferase Assay Kit (Promega, Madison) according to the manufacturer’s instructions using an AutoLumat LB 9501 (Berthold Technologies, Bad Wildbad).

CB2-receptor [4] = molecular target: T2, CB2-receptor; assay: cAMP-dependent luciferase assay in CHO-CB2-CRE-luc cells; type: cell-based; conditions: for CB2-receptor agonistic activity (fold induction of CRE-luc): 15 min pre-incubation, then 10 µmol/L FSK for 6 h; for Effect on CB2: CHO-CB2-CRE-luc, summary classification; for CB2 agonistic effect compared with positive control WIN: same dose as 1 µmol/L WIN
Protocol: as §1, §2, §3

NFAT = assay: PMA/IO-induced NFAT-luc activation in Jurkat T-cells; type: cell-based; conditions: 0.5–25 µmol/L
Protocol: (§4) Jurkat T-cells (10^6 cells per milliliter) were transiently transfected with plasmids that contained an NF-κB-dependent (KBF-luc) or NFAT-dependent (NFAT-luc) promotors fused to the luciferase gene using Lipofectin (Life Technologies, Carlsbad) according to the manufacturer’s instructions ([Yano et al. 1987]; [Durand et al. 1988]). Twenty-four hours after transfection, cells were stimulated for 30 min with increasing doses of the test compounds or WIN as a control (Tocris, Bristol). Then PMA (50 ng/ml)—for NFAT-luc—plus ionomycin (0.5 µg/ml) (Sigma-Aldrich, St. Louis) was added, followed by a 6 h incubation period.
as §3

NF-κB = assay: PMA-induced NF-κB-luc (KBF-luc) activation in Jurkat T-cells; type: cell-based; conditions: 0.5–25 µmol/L
Protocol: as §4, §3

RAW264.7 macrophages = assay: IL-17-induced polarization to pro-inflammatory M1 macrophages (qPCR); type: cell-based; conditions: RAW264.7, 0.5 to 10 µmol/L
Protocol: To assess the IL-17-induced polarization to pro-inflammatory M1 macrophages, RAW264.7 macrophages (10^6 cells per Petri dish) were incubated for 18 h with or without the test compounds containing 0.1% FBS. Subsequently, they were stimulated for 24 h with recombinant murine IL-17 (50 ng/ml; R&D Systems, Minneapolis). The CB2-receptor agonist JWH-133 was used as a positive control. Then, the messenger RNA (mRNA) was extracted using RNeasy Mini Kits (Qiagen, Hilden), and its purity determined by UV measurements at 260 and 280 nm. The induction of IL-6, IL-1β, CC-chemokine ligand 2 (CCL2), and tumor necrosis factor (TNF)-α mRNA was assessed as markers of pro-inflammatory activity using quantitative real-time polymerase chain reactions (qPCRs).
mRNA reverse transcription in cDNA was performed with iQ™ SYBR Green Supermix and the CFX96 real-time PCR system (Bio-Rad, Hercules). The amplification consisted of a 5 min denaturation at 95°C followed by 40 cycles each of 30 s at 95°C and 30 s at 55°C (annealing). Elongation for 30 s at 72°C came next, followed by a cycle for 10 s at 83°C and finally a cycle for 1 min at 72°C. Calculations were made according to the Livak method by quantifying glyceraldehyde 3-phosphate dehydrogenase (GAPDH) as a reference ([Schmittgen and Livak 2008]). The results are given as multiples of the reference gene ([…]).

primary human monocytes = assay: Anti-inflammatory effect on LPS-treated monocytes (ELISA); type: cell-based; conditions: LPS 10 ng/ml, 24 h
Protocol: Human peripheral blood monocytes were prepared from healthy donors who provided written informed consent at the local blood bank (University Hospital of Freiburg, Germany). Mononuclear cells were isolated by density gradient centrifugation according to standard protocol ([English and Andersen, 1974]) using lymphocyte separation medium, (PAN Biotech, Aidenbach). Cells were resuspended in RPMI-1640 medium (Invitrogen/Thermo Fisher Scientific, Karlsruhe) containing 10% human serum (Hexacell, Berlin). About 5 × 10^5 cells per milliliter were seeded in 24-well plates and incubated at 37°C and 5% CO2. The medium and the non-adherent cells were removed by washing with PBS and fresh RPMI medium, and 1% human serum was added to each well.
To test the anti-inflammatory effect of the test compounds, monocytes were incubated for 30 min with increasing doses of the test compounds. Then lipopolysaccharide (LPS) (10 ng/ml; Escherichia coli, Sigma-Aldrich, St. Louis) was added followed by a 24 h incubation period. The supernatants were removed and the levels of IL-1β, IL-6, IL-8, TNF-α, and prostaglandin E2 (PGE2) determined by enzyme-linked immunosorbent assay (ELISA) performed according to the manufacturer’s instructions (IL-1β from Hiss, Freiburg; IL-6, IL-8, and TNF-α from ImmunoTools, Friesoythe; and PGE2 from Cayman, distributed by Biozol, Hamburg). Stimulation with LPS alone was considered 100%.

SMILES | Ki (CB1-receptor [1]) [µM] | Ki (CB2-receptor [2]) [µM] | Selectivity CB2/CB1 (CB2-receptor [2]) | Effect on CB1 (CB1-receptor [3]) | CB2-receptor agonistic activity (fold induction of CRE-luc) (CB2-receptor [4]) | Effect on CB2 (CB2-receptor [4]) | CB1-receptor antagonistic activity (fold induction of CRE-luc) (CB1-receptor [3]) | CB2 agonistic effect compared with positive control WIN (CB2-receptor [4]) | Inhibition of PMA/IO-induced NFAT activation (NFAT) | Inhibition of PMA-induced NF-κB activation (NF-κB) | IL-17-stimulated CCL2 mRNA expression (RAW264.7 macrophages) | IL-17-stimulated IL-1β mRNA expression (RAW264.7 macrophages) | IL-17-stimulated IL-6 mRNA expression (RAW264.7 macrophages) | LPS-induced IL-1β release (primary human monocytes) | LPS-induced IL-8 release (primary human monocytes) | LPS-induced TNF-α release (primary human monocytes) | CB1-receptor agonistic activity (fold induction of CRE-luc) (CB1-receptor [3]) | LPS-induced IL-6 release (primary human monocytes) | also measured
C=C(C)[C@@H]1CCC(C)=C[C@H]1c1c(O)cc(CCC)c(C(=O)OCCO)c1O [2-HECBDV (7), 2-hydroxyethyl cannabidivarinolate] | 5.65 | 0.168 ± 0.0394 | 33.6 | Antagonist | dose-dependent agonistic effects | Agonist | – | – | – | – | – | – | – | – | – | – | – | – | –
C=C(C)[C@@H]1CCC(C)=C[C@H]1c1c(O)cc(CCCCC)c(C(=O)OCCNS(C)(=O)=O)c1O [NMSC (6), 2-(methylsulfonamido)ethyl cannabidiolate] | 0.27 ± 0.04 | 0.012 ± 0.001 | 22.5 | Antagonist | – | Agonist | dose-dependent activity; also recorded: strongly CB1 antagonistic | similarly strongly agonistic | significantly inhibited | inhibited | reduced compared to the control at all concentrations | inhibited TNF-α and IL-1β only at low doses | co-stimulated | enhanced | significantly reduced | significantly reduced | – | – | preference for the CB2-receptor (CB2-receptor [2]; CB2 over CB1): 22.5 fold; IL-17-stimulated TNF-α mRNA expression (RAW264.7 macrophages): inhibited TNF-α and IL-1β only at low doses; LPS-induced PGE2 release (primary human monocytes): significantly reduced
C=C(C)[C@@H]1CCC(C)=C[C@H]1c1c(O)cc(CCC)c(C(=O)OCCCCCC)c1O [HCBDV (9), n-hexyl cannabidivarinolate] | 0.0083 ± 0.00069 | 0.0099 ± 0.0025 | 0.8 | Agonist | no effect | No activity | – | – | – | – | – | – | – | – | – | – | agonistic effects | – | –
C=C(C)[C@@H]1CCC(C)=C[C@H]1c1c(O)cc(CCC)c(C(=O)OC2CCCCC2)c1O [CHCBDV (8), cyclohexyl cannabidivarinolate] | 0.0132 ± 0.0009 | 0.00462 ± 0.0005 | 2.9 | Agonist | non-selective agonism | Agonist | – | – | – | – | – | – | – | – | – | – | non-selective agonism | – | –
C=C(C)[C@@H]1CCC(C)=C[C@H]1c1c(O)cc(CCCCC)c(C(=O)OC2CCCCC2)c1O [CHC (4), cyclohexyl cannabidiolate] | 0.87 ± 0.1 | 0.51 ± 0.29 | 1.7 | Agonist | – | Agonist | negative | as strong as the same dose of the positive control | did not inhibit | did not inhibit | inhibited | inhibited | – | reduced | moderately and dose-dependently inhibited | reduced | activate CB1-receptors | moderately and dose-dependently inhibited | Anti-inflammatory effects overall (primary human monocytes): only very weak anti-inflammatory effects
C=C(C)[C@@H]1CCC(C)=C[C@H]1c1c(O)cc(CCCCC)c(C(=O)OCCCCCC)c1O [HC (5), n-hexyl-cannabidiolate] | 2.5 | 0.067 ± 0.004 | 37.3 | Antagonist | did not activate | No activity | dose-dependent activity | – | no inhibition | only marginal | inhibited | inhibited | dose-dependent reduction | inhibited at higher doses | inhibited at higher doses | dose-dependently inhibited | – | dose-dependently inhibited | –
